Measured values taken from patent US7354935B2, “Radiolabeled neurokinin-1 receptor antagonists” (Merck & Co. Inc., priority 2002, dated 2008).

Experiments:
[1] = Percent of parent tracer remaining in monkey plasma (plasma half-life comparison, TLC/gamma counting); type: in vivo, rhesus monkey; details: for % parent tracer remaining in monkey plasma / Amount of tracer remaining in plasma relative to the protonated tracer: rhesus monkey; for Amount of tracer remaining in plasma relative to the protonated tracer: versus Compound A
Protocol: To compare the plasma half-life of [^18F][2-fluoromethoxy-5-(5-trifluoromethyl-tetrazol-1-yl)-benzyl]-([2S,3S]-2-phenyl-piperidin-3-yl)-amine (Compound A) and [^18F][2-fluorodideuteromethoxy-5-(5-trifluoromethyl-tetrazol-1-yl)-benzyl]-([2S,3S]-2-phenyl-piperidin-3-yl)-amine (Compound B) in rhesus monkey, ˜5 mCi of each radiotracer (in saline) was injected by iv into an anesthetized monkey. At various time points, whole blood was drawn, mixed with 0.02 mL of acetonitrile and centrifuged for 3-5 minutes at 5000 rpm. A 0.02 mL aliquot of the acetonitrile extract was spotted on a 5×7 cm TLC plate along with the cold standard and developed using 60:40:0.1 ethyl acetate:methanol:triethylamine. The TLC plate was cut into four sections pertaining to the origin, to determine the amount of fluoride present, the section between the origin and where the standard eluted, to determine polar metabolites, the section where the parent compound eluted, to determine the amount of parent compound remaining, and the area between the parent compound and the solvent front for nonpolar metabolites. The TLC strips were then counted in a gamma counter to determine the number of counts for each section of TLC plate. The percentage of the total counts that were due to the remaining parent compound was determined. […] With the higher prolonged plasma levels of the deuterated tracer, more time is available for a larger specific signal to develop, and for the tracer to accumulate in brain regions that have a low receptor concentration and could be difficult to image using the protonated tracer.

NK1 receptor = target: T1, NK1 receptor (Macaca mulatta, UniProt F7GQV6); assay: Chase study with an unlabelled NK1 antagonist, PET regions of interest (chaseability); type: in vivo, rhesus monkey; details: for Remaining Specific Binding in Rhesus Monkey after 1 mpk Chase at 180 Minutes with an NK1 Antagonist: striatum minus cerebellum
T1 construct: from tissue; host or cells: brain (striatum and other regions) of a living rhesus monkey, PET imaging
T1 sequence (F7GQV6 1-407): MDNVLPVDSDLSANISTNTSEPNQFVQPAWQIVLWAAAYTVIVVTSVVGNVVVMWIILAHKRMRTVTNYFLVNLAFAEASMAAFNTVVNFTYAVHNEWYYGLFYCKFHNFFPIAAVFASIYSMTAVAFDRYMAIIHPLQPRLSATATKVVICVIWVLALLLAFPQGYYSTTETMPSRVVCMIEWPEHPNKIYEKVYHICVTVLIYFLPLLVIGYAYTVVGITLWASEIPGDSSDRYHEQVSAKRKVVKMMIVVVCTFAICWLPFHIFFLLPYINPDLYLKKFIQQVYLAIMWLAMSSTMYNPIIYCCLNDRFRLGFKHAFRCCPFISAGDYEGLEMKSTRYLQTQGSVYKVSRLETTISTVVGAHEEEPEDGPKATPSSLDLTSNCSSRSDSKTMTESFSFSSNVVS
Protocol: A bolus of an unlabelled NK1 antagonist was administered 180 minutes after a bolus injection of either tracer. From the resulting images, regions of interest were drawn to determine the amount of radioactivity present in different brain regions. […] Also, using the 70% level of chase as a comparison (30% remaining specific binding), the fluoroethoxy compound reaches this level ˜50 minutes before the dideuterofluoromethoxy analog reaches this same level. Because the fluoroethoxy compound [^18F][2-fluoroethoxy-5-(5-trifluoromethyl-tetrazol-1-yl)-benzyl]-([2S,3S]-2-phenyl-piperidin-3-yl)-amine chases from the striatum faster than the fluoromethoxy analog, a more accurate picture of what the true receptor occupancy is can be obtained using the fluoroethoxy analog.

[2] = Brain levels of the tracer; type: in vivo; details: comparison in words
[3] = 5 minutes after iv injection of ~5 mCi
[4] = 15 minutes after iv injection of ~5 mCi
[5] = 30 minutes after iv injection of ~5 mCi
[6] = 45 minutes after iv injection of ~5 mCi
[7] = 60 minutes after iv injection of ~5 mCi
[8] = 120 minutes after iv injection of ~5 mCi
[9] = 180 minutes after iv injection of ~5 mCi

Molecule	% parent tracer remaining in monkey plasma [1, 3] [%]	% parent tracer remaining in monkey plasma [1, 4] [%]	% parent tracer remaining in monkey plasma [1, 5] [%]	% parent tracer remaining in monkey plasma [1, 6] [%]	% parent tracer remaining in monkey plasma [1, 7] [%]	% parent tracer remaining in monkey plasma [1, 8] [%]	% parent tracer remaining in monkey plasma [1, 9] [%]	Remaining Specific Binding in Rhesus Monkey after 1 mpk Chase at 180 Minutes with an NK1 Antagonist (NK1 receptor; 195 minutes after tracer) [%]	Remaining Specific Binding in Rhesus Monkey after 1 mpk Chase at 180 Minutes with an NK1 Antagonist (NK1 receptor; 205 minutes after tracer) [%]	Remaining Specific Binding in Rhesus Monkey after 1 mpk Chase at 180 Minutes with an NK1 Antagonist (NK1 receptor; 230 minutes after tracer) [%]	Remaining Specific Binding in Rhesus Monkey after 1 mpk Chase at 180 Minutes with an NK1 Antagonist (NK1 receptor; 270 minutes after tracer) [%]	Time at which tracer begins to chase (is displaced from the receptor) after administration of the unlabelled antagonist (NK1 receptor; striatum, rhesus monkey)	Brain levels of the tracer relative to the [18F]fluoromethoxy compound [2]	Amount of tracer remaining in plasma relative to the protonated tracer ([1]; all time points examined)	Metabolic stability relative to the [18F]fluoromethoxy compound of U.S. Pat. No. 6,241,964 ([1]; comparison in words)	Plasma half-life relative to the [18F]fluoromethoxy compound of U.S. Pat. No. 6,241,964 ([1]; comparison in words)	Amount of tracer remaining in plasma relative to the protonated tracer ([1]; end of the experiment (3 hours))	Remaining Specific Binding in Rhesus Monkey after 1 mpk Chase at 180 Minutes with an NK1 Antagonist (NK1 receptor; 220 minutes after tracer) [%]	Time by which the 70% level of chase (30% remaining specific binding) is reached before the dideuterofluoromethoxy analog (NK1 receptor; striatum, rhesus monkey, versus Compound B) [minutes]	Displacement from the NK1 receptor when unlabelled compounds are administered, relative to the [18F]fluoromethoxy compound (NK1 receptor; comparison in words)
FC(F)(F)c1nnnn1-c1ccc(OC[18F])c(CN[C@H]2CCCN[C@H]2c2ccccc2)c1 [Compound A, [^18F][2-fluoromethoxy-5-(5-trifluoromethyl-tetrazol-1-yl)-benzyl]-([2S,3S]-2-phenyl-piperidin-3-yl)-amine, reference compound]	72	55	38	35	25	16	9													
[2H]C([2H])([18F])Oc1ccc(-n2nnnc2C(F)(F)F)cc1CN[C@H]1CCCN[C@H]1c1ccccc1 [Compound B, [^18F][2-fluorodideuteromethoxy-5-(5-trifluoromethyl-tetrazol-1-yl)-benzyl]-([2S,3S]-2-phenyl-piperidin-3-yl)-amine]	91	87	75	39	41	23	20	~96	~85	~55	~30	about 30 minutes	relatively higher brain levels	more of the deuterated tracer remaining in the plasma than the protonated tracer	metabolically more stable	longer plasma half-life	twice as much			
FC(F)(F)c1nnnn1-c1ccc(OCC[18F])c(CN[C@H]2CCCN[C@H]2c2ccccc2)c1 [Compound C, [^18F][2-fluoroethoxy-5-(5-trifluoromethyl-tetrazol-1-yl)-benzyl]-([2S,3S]-2-phenyl-piperidin-3-yl)-amine]								~85	~55			almost immediately						~30	~50	
[^18F][2-fluoroethoxy-5-(5-trifluoromethyl-tetrazol-1-yl)-benzyl]-([2S,3S]-2-phenyl-piperidin-3-yl)-amine [Compound C]																				faster
